The values below come from patent publication US12679878B2, “CRF2 receptor agonists and their use in therapy” (SANOFI, priority 2020, dated 2026).

Data set [1] is described as follows: Solubility in buffer systems by UPLC-UV (Example 13). The data set is classed as physicochemical. The method in brief: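 The supernatant was diluted 1:10 and quantified by UPLC-UV peak area against a reference standard curve, correcting for sequence-based extinction coefficients.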
Data set [2] is described as follows: Chemical stability, purity loss by UPLC-UV after 28 days at 40° C. vs 5° C., pH 4.5 acetate buffer (Example 12). It counts as physicochemical. Particulars: 28 days 40° C. vs 5° C.; pH 4.5, 20 mM acetate buffer; 300 μM. The method in brief:
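300 μM compound (purity-corrected) in 20 mM acetate buffer, pH 4.5, stored 28 days at 5 and 40° C. Purity by UPLC-UV as compound peak area over total peak area. Value is the purity difference between 5° C. and 40° C. samples, relative to the 5° C. purity, in percent.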

A further data set has as its target T1, recombinant human CRF2 (Homo sapiens, UniProt Q13324).
T1 construct: expressed in transfected cells; host or cells: HEK
T1 sequence (Q13324 1-411): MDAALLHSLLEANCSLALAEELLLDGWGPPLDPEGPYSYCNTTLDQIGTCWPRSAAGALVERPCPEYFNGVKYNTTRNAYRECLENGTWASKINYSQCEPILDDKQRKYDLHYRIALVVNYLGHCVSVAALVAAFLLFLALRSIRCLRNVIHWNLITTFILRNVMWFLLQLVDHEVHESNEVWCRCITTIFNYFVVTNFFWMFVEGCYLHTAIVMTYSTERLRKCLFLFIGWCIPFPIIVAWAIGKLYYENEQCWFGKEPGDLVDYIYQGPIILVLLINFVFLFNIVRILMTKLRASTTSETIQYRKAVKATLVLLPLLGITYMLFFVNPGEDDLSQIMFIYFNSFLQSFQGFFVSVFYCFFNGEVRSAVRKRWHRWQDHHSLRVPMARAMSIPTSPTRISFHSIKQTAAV
The data set is described as follows: CRF2a (h) agonist radioligand binding, [125]sauvagine, HEK cell membranes (Example 11). Particulars: competition with [125]sauvagine 0.1 nM. The protocol: Receptor binding of the compounds was assessed using a CRF2a (h) (agonist radioligand) assay.
(§1) HEK cells expressing recombinant human CRF2 were used as a source of receptor for membrane preparation.
(§2) IC50 values (concentration causing a half-maximal inhibition of control specific binding) and Hill coefficients (nH) were determined by non-linear regression analysis of the competition curves generated with mean replicate values using Hill equation curve fitting. The inhibition constants (Ki) were calculated using the Cheng Prusoff equation [Ki=IC50/(1+L/KD) where L is the concentration of radioligand in the assay, and KD is the affinity of the radioligand for the receptor). A Scatchard plot was used to determine the KD.

Data set [3] has as its system rat CRF2R α receptor. Kind of data set: cAMP agonism at rat CRF2R α receptor in A7R5 rat aortic smooth muscle cells (Example 8). The data set is classed as cell-based. Particulars: cAMP HTRF, A7R5 rat aortic smooth muscle cell line, 0% HSA. In a few lines:
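Thawed cryopreserved A7R5 cells in HBSS/20 mM HEPES (0 or 0.1% HSA) with 2 mM IBMX, 2000 cells/well, were exposed to compound for 30 min at room temperature. cAMP was read by HTRF (665/620 nm ratio) after 1 h with lysis reagents. Activity was normalised to 1000 nM urocortin 2 as 100%, and EC50 was taken as the concentration giving 50% of maximal activation.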
For orientation: In TR-FRET formats the signal depends on donor and acceptor labels being close together.

A further data set addresses T2, CRF1R receptor (Homo sapiens, UniProt P34998).
T2 construct: host or cells: CHO-K1 clone 2
T2 sequence (P34998 24-415): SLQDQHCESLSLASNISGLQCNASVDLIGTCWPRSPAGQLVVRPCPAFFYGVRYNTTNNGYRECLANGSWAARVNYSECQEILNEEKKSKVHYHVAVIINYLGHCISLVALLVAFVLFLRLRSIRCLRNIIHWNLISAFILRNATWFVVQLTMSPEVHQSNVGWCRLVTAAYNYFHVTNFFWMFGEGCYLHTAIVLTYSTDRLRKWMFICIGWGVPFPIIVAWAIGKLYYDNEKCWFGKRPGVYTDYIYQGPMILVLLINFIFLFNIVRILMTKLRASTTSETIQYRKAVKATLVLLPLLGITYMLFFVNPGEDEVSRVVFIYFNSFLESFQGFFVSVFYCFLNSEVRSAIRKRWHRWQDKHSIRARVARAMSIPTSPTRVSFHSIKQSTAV
The data set is described as follows: cAMP activity at anti-target CRF1R, CRF1R-overexpression CHO cell line (Example 9). The data set is classed as cell-based. Particulars: CRF1R-overexpression CHO cell line. In a few lines: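 cAMP accumulation was read by HTRF after 30 min at room temperature of compound treatment. Cells were cryopreserved CHO cells overexpressing CRF1R, plated at 2000/well in IBMX (2 mM)-containing HBSS/HEPES buffer with 0 or 0.1% HSA. Activity was normalized to 1000 nM UCN2 as 100%.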

The next data set concerns the target T3, human CRF2α receptor (Homo sapiens, UniProt Q13324).
T3 construct: expressed in transfected cells; host or cells: TeloHEAC
T3 sequence (Q13324 1-411): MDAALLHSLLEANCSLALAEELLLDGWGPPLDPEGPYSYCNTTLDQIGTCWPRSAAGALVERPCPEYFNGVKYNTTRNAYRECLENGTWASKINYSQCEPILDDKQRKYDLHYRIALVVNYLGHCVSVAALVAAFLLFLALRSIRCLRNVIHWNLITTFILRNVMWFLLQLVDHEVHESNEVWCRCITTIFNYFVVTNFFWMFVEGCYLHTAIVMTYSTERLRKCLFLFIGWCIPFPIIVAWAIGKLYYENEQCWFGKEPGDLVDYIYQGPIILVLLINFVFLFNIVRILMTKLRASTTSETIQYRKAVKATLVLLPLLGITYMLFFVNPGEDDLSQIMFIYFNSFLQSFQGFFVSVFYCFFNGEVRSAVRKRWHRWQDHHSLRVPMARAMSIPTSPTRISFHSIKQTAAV
Kind of data set: cAMP agonism at human CRF2 α receptor in TeloHEAC cells (Example 7). The data set is classed as cell-based. Conditions: cAMP HTRF, TeloHEAC cells stably expressing human CRF2 α, 0% HSA; read-out: EC50 [nM], 0% HSA. In a few lines: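 Thawed frozen stably transfected cells in HBSS/20 mM HEPES (0% or 0.1% HSA) plus 2 mM IBMX were exposed to compound at 2000 cells/well for 30 min at room temperature. Intracellular cAMP was read by HTRF (665/620 nm ratio) after 1 h lysis; EC50 was derived with 1000 nM urocortin 2 set as 100%.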

Data set [4] has as its target T4, recombinant human CRF2 (HEK cell membranes) (human, UniProt Q13324 1-411).
T4 construct: Whole receptor in membranes prepared from HEK cells; also called CRF2a (h); CRF2 receptor
T4 sequence (looked up): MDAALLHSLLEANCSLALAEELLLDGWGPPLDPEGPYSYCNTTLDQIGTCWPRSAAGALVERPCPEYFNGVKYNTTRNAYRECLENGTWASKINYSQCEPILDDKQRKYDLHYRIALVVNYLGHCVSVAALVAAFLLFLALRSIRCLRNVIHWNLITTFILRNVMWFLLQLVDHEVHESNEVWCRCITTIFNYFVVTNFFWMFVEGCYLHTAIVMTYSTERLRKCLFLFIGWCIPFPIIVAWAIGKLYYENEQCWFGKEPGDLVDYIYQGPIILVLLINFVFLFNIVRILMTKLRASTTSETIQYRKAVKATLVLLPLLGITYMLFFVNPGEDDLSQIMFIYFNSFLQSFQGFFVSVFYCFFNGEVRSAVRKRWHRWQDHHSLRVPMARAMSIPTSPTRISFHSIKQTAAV
Kind of data set: Hill coefficient of the competition curve against [125]sauvagine, HEK membranes with recombinant human CRF2. The protocol: as §1, §2

Data set [5] addresses T5, anti-target CRF1R receptor (UniProt P34998 24-415, limits assumed).
T5 sequence (looked up): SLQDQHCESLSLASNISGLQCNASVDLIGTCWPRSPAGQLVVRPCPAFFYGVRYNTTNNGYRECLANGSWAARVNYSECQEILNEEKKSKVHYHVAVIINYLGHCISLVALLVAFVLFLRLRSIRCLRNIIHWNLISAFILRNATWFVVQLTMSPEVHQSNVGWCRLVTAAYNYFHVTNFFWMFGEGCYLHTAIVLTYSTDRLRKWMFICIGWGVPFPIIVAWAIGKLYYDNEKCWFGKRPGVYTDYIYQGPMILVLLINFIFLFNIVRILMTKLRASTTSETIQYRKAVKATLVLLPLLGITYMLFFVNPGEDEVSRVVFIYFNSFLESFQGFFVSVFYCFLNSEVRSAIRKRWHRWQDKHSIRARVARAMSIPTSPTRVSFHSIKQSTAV
The data set is described as follows: cell-based or functional assay.

Data set [6] has as its target rat CRF2R α receptor (rat, UniProt P47866 20-411). The data set is described as follows: cell-based or functional assay.

Starred links: 1 amine or outer side, 2 acyl side, 3 side chain; linkers in the order of their positions; H or OH if unused. Residues, ends and D or L forms follow the SMILES beside them. Groups on a side chain read outwards from the residue. No end group written: not given here. *: point of attachment. C18 diacid = O=C(O)CCCCCCCCCCCCCCCCC(=O)*; γGlu = O=C(O)[C@H](CCC(=O)[*:2])N[*:1]; AEEA = NCCOCCOCC(=O)O

Broadly, the solubility is how much of the substance goes into solution per volume. The term EC50 denotes the concentration that produces a half-maximal response. Broadly, the Emax is the greatest response seen or fitted, relative to the assay's reference. With `CC[C@H](C)[C@H](N)C(=O)N[C@H](C(=O)N[C@@H](CC(C)C)C(=O)N[C@@H](CO)C(=O)N[C@@H](CC(C)C)C(=O)N[C@@H](CC(=O)O)C(=O)N[C@H](C(=O)N1CCC[C@H]1C(=O)N[C@H](C(=O)N[C@@H](CCCCN)C(=O)N[C@@H](CC(C)C)C(=O)N[C@@H](CCCCNC(=O)COCCOCCNC(=O)COCCOCCNC(=O)CC[C@H](NC(=O)CCCCCCCCCCCCCCCCC(=O)O)C(=O)O)C(=O)N[C@@H](CCC(N)=O)C(=O)N[C@H](C(=O)N[C@@H](CC(C)C)C(=O)N[C@@H](CC(C)C)C(=O)N[C@@H](CCC(=O)O)C(=O)N[C@@H](CCC(N)=O)C(=O)N[C@@H](CCC(=O)O)C(=O)N[C@@H](CCCNC(=N)N)C(=O)N[C@@H](CCC(N)=O)C(=O)N[C@@H](CCCCN)C(=O)N[C@@H](CCCCN)C(=O)N[C@@H](CCC(N)=O)C(=O)N[C@@H](CCCNC(=N)N)C(=O)N[C@@H](CCC(=O)O)C(=O)N[C@@H](CCC(N)=O)C(=O)N[C@@H](C)C(=O)N[C@@H](CCC(=O)O)C(=O)N[C@H](C(=O)N[C@@H](CC(N)=O)C(=O)N[C@@H](CCCCN)C(=O)N[C@@H](CCC(N)=O)C(=O)N[C@H](C(=O)N[C@@H](CC(C)C)C(=O)N[C@@H](C)C(=O)N[C@@H](CCC(N)=O)C(=O)N[C@H](C(N)=O)C(C)C)[C@@H](C)CC)[C@@H](C)O)[C@@H](C)CC)[C@@H](C)CC)C(C)C)C(C)C` [compound 68] (H-IVLSLDVPIKLK([AEEA-AEEA-γGlu-C18 diacid])QILLEQERQKKQREQAETNKQILAQV-NH2; N-terminus assumed), the solubility at 1 h in data set [1] (pH 4.5, Solubility in Buffer B [mg/ml]) is > 9800 µg/mL; in data set [1] (pH 7.4, Solubility in Buffer C [mg/ml]), > 8900 µg/mL. For the same molecule, in [2], the “Relative purity loss [%]” value is reported as 6.00%. Further, on recombinant human CRF2, the “nH (Hill coefficient)” value is reported as 0.8. Further, the EC50 in the data set with rat CRF2R α receptor [3] was 1.74 nM; on CRF1R receptor (0% HSA), > 1000 nM; at human CRF2α receptor, 0.2 nM. Further, the Emax at CRF1R receptor (read-out: Emax (%)) was 12.3%.

B1: peptide of SEQ ID NO: 51 (peptide)
peptide: FTLSLDVPTKIK([AEEA-AEEA-γGlu-C18 diacid])QILLKQQKQKKERQQAEKNKQLLEQI-NH2
modifications: N-terminus assumed
SMILES: CC[C@H](C)[C@H](NC(=O)[C@H](CCC(N)=O)NC(=O)[C@H](CCC(=O)O)NC(=O)[C@H](CC(C)C)NC(=O)[C@H](CC(C)C)NC(=O)[C@H](CCC(N)=O)NC(=O)[C@H](CCCCN)NC(=O)[C@H](CC(N)=O)NC(=O)[C@H](CCCCN)NC(=O)[C@H](CCC(=O)O)NC(=O)[C@H](C)NC(=O)[C@H](CCC(N)=O)NC(=O)[C@H](CCC(N)=O)NC(=O)[C@H](CCCNC(=N)N)NC(=O)[C@H](CCC(=O)O)NC(=O)[C@H](CCCCN)NC(=O)[C@H](CCCCN)NC(=O)[C@H](CCC(N)=O)NC(=O)[C@H](CCCCN)NC(=O)[C@H](CCC(N)=O)NC(=O)[C@H](CCC(N)=O)NC(=O)[C@H](CCCCN)NC(=O)[C@H](CC(C)C)NC(=O)[C@H](CC(C)C)NC(=O)[C@@H](NC(=O)[C@H](CCC(N)=O)NC(=O)[C@H](CCCCNC(=O)COCCOCCNC(=O)COCCOCCNC(=O)CC[C@H](NC(=O)CCCCCCCCCCCCCCCCC(=O)O)C(=O)O)NC(=O)[C@@H](NC(=O)[C@H](CCCCN)NC(=O)[C@@H](NC(=O)[C@@H]1CCCN1C(=O)[C@@H](NC(=O)[C@H](CC(=O)O)NC(=O)[C@H](CC(C)C)NC(=O)[C@H](CO)NC(=O)[C@H](CC(C)C)NC(=O)[C@@H](NC(=O)[C@@H](N)Cc1ccccc1)[C@@H](C)O)C(C)C)[C@@H](C)O)[C@@H](C)CC)[C@@H](C)CC)C(N)=O
On to B1, for which the nH in [4] came out at 0.8. Further, in data set [5], the “EC50[nM] 0% HSA (cAMP, CRF1R-overexpression CHO cells)” value was > 1000 nM and the “Emax (%) (cAMP, CRF1R-overexpression CHO cells)” value came to 3.38%. In addition, the “EC50 [nM], 0% HSA (cAMP, A7R5 cells)” value in the data set with rat CRF2R α receptor [6] amounted to 0.87 nM.
